The text below walks through data of patent publication EP4623911A1, “PI4KB INHIBITORS FOR THE TREATMENT OF FATTY LIVER DISEASE” (ETH Zurich, priority 2024, dated 2025).

Molecules are shown by their SMILES. “Also recorded” adds a separate entry of the source.

The assay concerns murine NASH model. In words: Murine NASH model (HFD, glucose/fructose drinking water, thermoneutral housing) treated with UCB9608. It counts as in vivo, mice. Here is the method: To model NASH in murine liver, male C57BL/6N mice were challenged with HFD for 24 weeks in conjunction with 18.9 g/L glucose&23.1 g/L fructose containing drinking water under thermoneutral housing condition (29°C) for 12 weeks before the administration of UCB9608 through HFD (15 mg/kg) for another 12 weeks. Then the mice were analysed in EcoMRI for body composition measurement before 6 hours fasting, followed by dissection to harvest liver and sample blood.
Total RNA was extracted from adipose depots, liver or in vitro cell cultures via Trizol reagent (Invitrogen) according to the manufacturer's instructions. Genomic DNA was removed from the crude RNA samples by DNase treatment (NEB BioLabs). For individual sample, 1 µg of total RNA was used to convert into cDNA library by using the High-Capacity cDNA Reverse transcription kit (Applied Biosystems, 4368813). Quantitative PCR was performed using KAPA SYBR FAST Universal kit (Roche, KK4618) on ViiA7 (Applied Biosystems) and the relative transcript levels were normalized to […] expression via ΔΔCt method. Table 2: Sequences of qPCR primers used in this study.
Plasma collected from mice under different conditions was used to determine levels of lipolysis and liver injury. FFA levels were measured via NEFA assay kit (Wako NEFA kit). TG levels were determined via TG assay kit (Roche Trig/GB reagent). ALT (MAK052, Sigma) and AST (MAK055, Sigma) assay kits were used to determine ALT and AST activity according to the manufacturer's instructions. The absorbance was monitored using Synergy Gen5 Platereader.
Weight of liver pieces (50-100 mg) was recorded before homogenization by 1 mL isopropanol per 50 mg tissue. The homogenates were incubated at room temperature with rotating before spinning down to remove debris at 2000×g for 10 min and collect supernatant. The TG levels were determined (Roche Trig/GB reagent) in Synergy Gen5 Platereader and normalized to the weight of liver pieces.
For NASH cohort, livers were dissected and fixed with 4% PFA in PBS for 24 h at 4°C. The samples were sent to the University of Zurich for histologic analyses. Briefly, liver tissues were dehydrated and embedded in paraffin and underwent section at 3 µm. The slides were stained with hematoxylin and eosin (H&E) and Gomori Green Trichrome directly or stained with anti-cleaved Caspase 3 after antigen retrieval. Afterwards, the images were captured by digital slide scanners and the grade of steatosis, ballooning, inflammation and fibrosis were quantified via the NASH Clinical Research Network Scoring System (Kleiner,D.E. et al. Hepatology 41, (2005)). To perform ORO staining, the fixed samples were sectioned, and the slides were stained via Oil Red O solution, followed by counter-staining with eosin. The images were acquired by digital slide scanners.

[1] abbreviates: NASH mice, 12 weeks after administration of UCB9608.
Where [2] appears, read: liver histology, NASH mice, UCB9608 vs vehicle.

For the molecule `COc1ccc(NC(=O)N2CCN(c3nc(N)nc4c3cnn4C)[C@@H](C)C2)c(C)c1` [UCB9608], where the note is “NASH livers, qPCR”, the “transcript levels of inflammatory markers” value is given as “mitigation”. The fibrosis-related marker expression result (NASH livers, qPCR, vs vehicle-treated control NASH mice) is given as “substantially ameliorated”. Also, under setting [1], the “TG levels in the plasma” value was “reduction; also recorded: reduced” and the “lipolysis (plasma FFA levels)” value was “enhanced”. Moreover, under “NASH mice, UCB9608 12 weeks”, the “ALT activity in the plasma” value is “reduction”, the “AST activity in the plasma” value is reported as “reduction”, the “hepatic TG levels” value is recorded as “reduced” and the “liver mass/body weight ratio” value is “reduced”. Further, the body weight result (NASH mice, UCB9608 through HFD (15 mg/kg) for 12 weeks) is “significant loss”. Also, the fat mass entry (NASH mice, UCB9608 through HFD (15 mg/kg) for 12 weeks, EcoMRI) is given as “significant loss”. Further, under setting [2], the NAFLD activity score result is recorded as “significantly lower”, the fibrosis grade result was “significantly lower”, the inflammation levels result was “significantly lower” and the liver injury result is “significantly lower”. Further, under setting [2], the steatosis grade result was “significantly lower”. The fatty acid oxidation result (liver of NASH mice, UCB9608 12 weeks) was “significant elevation”.
